# Assay results published in patent US4652554A, “Nitro-substituted 1-β-D-arabinofuranosylcytosines” (St. Jude Children's Research Hospital, priority 1982, dated 1987).
# Like-named read-outs stand apart in the source and are kept apart here.
# Tests used:
# [1] = biological target: Cytidine deaminase (Mus musculus, UniProt P56389); assay: Substrate specificity of cytidine deaminase (spectrophotometric deamination assay); format: biochemical; conditions: for Relative initial rate of deamination: 2.5×10^-4 M substrate, 1.3 mg enzyme protein, pH 7.0, 37° C., cytidine = 100
# Description: Thus, mouse kidney acetone powder (3 g. obtained from Sigma Chemical Co., St. Louis, Mo.) was extracted at 55°-60° C. for 5 minutes with phosphate buffer (pH 8.0, 0.05M). The extract was filtered through four layers of guaze bandage, and the remaining colloidal materials were removed by centrifugation at 20,000 g. for 10 minutes. The supernatant was then filtered through a Nalgene filter unit (0.45 μm grid membrane) to give a clear yellowish filtrate that was adjusted to 40% saturation by the addition of solid ammonium sulfate (24 g/100 ml. of filtrate) with stirring at room temperature, and stirring was continued for 30 minutes. After removal of the precipitate by centrifugation (20,000 g. for 30 minutes), the active supernatant was adjusted to 70% saturation by further addition of ammonium sulfate (24 g/100 ml of supernatant). The resulting precipitate, recovered by centrifugation (20,000 g. for 30 minutes), was dissolved in 4 ml. of phosphate buffer (pH 7.0, 0.05M) and dialyzed twice against 2 liters of the same buffer.
# Protein content was determined by Bio-Rad Protein Assay. […] All reaction mixtures contained 2.5×10^-4 M of substrate and 1.3 mg of enzyme protein in a final volume of 1.0 ml. of phosphate buffer (pH 7.0, 0.05M).
# [2] = system: murine leukemia L1210; assay: In vivo L1210 leukemia cell number in peritoneal cavity 24 h after single i.p. dose; design: species or system murine (B6D2F1/J female mice); conditions: 720 mg/kg i.p., 24 hours after treatment (day 6)
# Description: 1-(2-O-Nitro-β-D-arabinofuranosyl)cytosine (nitrara-C) is a powerful anti-neoplastic agent particularly against the leukemias.
# B6D2F1 /J female mice weighing ~20 g. were inoculated intraperitoneally with 1×10^5 cells of the murine leukemia, L1210. Five days later, the leukemia cells were washed from the peritoneal cavities of untreated mice, and baseline counts were made. Concomitantly, other groups of mice were treated i.p. with either ara-C.HCl or nitrara-C.HCl. Each drug was administered at a level of 720 mg/kg in a volume of 0.01 ml/gm of mouse weight. Twenty-four hours later, on day 6, cells were washed from the peritoneal cavities of both treated and NaCl-injected mice, and cell numbers were compared.
# Five days after the intraperitoneal inoculation of B6D2F1 /J mice with one hundred thousand cells of leukemia L1210, an average of 255 million cells were recovered from the abdominal compartments of untreated mice. Twenty-four hours later, this value had increased by 52 percent for NaCl-injected mice, but had declined by 90 percent for animals that received 720 mg/kg of nitrara-C and 77% for ara-C treated group.
# [3] = system: CCRF-CEM (T-cells); assay: Cytotoxicity (cell growth inhibition), CCRF-CEM; format: cell-based; conditions: Homo sapiens, read-out: IC50 (molar conc. for 50% inhib. of cell growth)
# [4] = system: MOLT-4 (T-cells); assay: Cytotoxicity (cell growth inhibition), MOLT-4; format: cell-based; conditions: Homo sapiens, read-out: IC50 (molar conc. for 50% inhib. of cell growth)
# [5] = system: RPMI-6410 (B-cells); assay: Cytotoxicity (cell growth inhibition), RPMI-6410; format: cell-based; conditions: Homo sapiens, read-out: IC50 (molar conc. for 50% inhib. of cell growth)
# [6] = system: CCFR-CEM/ara-C (mutant); assay: Cytotoxicity (cell growth inhibition), ara-C resistant mutant; format: cell-based; conditions: Homo sapiens, read-out: IC50 (molar conc. for 50% inhib. of cell growth)
# [7] = system: human leukemia cells; assay: Cytotoxicity to human leukemia cells in culture, summary
# Description: Experiments were also carried out to determine the growth potential of cultured human lymphoblasts in the presence of nitrara-C in tissue culture.
# [8] = system: experimental tumors in animals; conditions: cited from earlier work
# [9] = system: L1210; assay: Life-span of mice inoculated i.p. with L1210 (3×10^6 cells), treatment started 24 h after implantation; format: in vivo, murine (B6D2F1/J female mice); conditions: for indefinite cures (60 day survivors): 5 mice per group; for extension of lifespan: 2000 mg/kg
# Description: In a similar further study, B6D2F1 /J female mice were inoculated i.p. with 3×10^6 cells of L1210. Treatment was started 24 hours after tumor implantation. Nitrara-C hydrochloride treatment regimens were as follows:
# Injections of 0.9 percent saline were used as a control.
# On regimen 1, statistically significant increase in life-span was obtained with dosages higher than 34 mg/kg.
# [10] = Effect of cytidine deaminase on cytotoxicity for CCRF-CEM cells; conditions: cytidine deaminase
# [11] = system: CCRF-CEM cells; assay: as above; conditions: Homo sapiens, CCRF-CEM
# [12] = human leukemia cells in culture
smiles,measurement,setting,value
"Nc1ccn([C@H]2C[C@H](O)[C@@H](CO)O2)c(=O)n1 [2'-Deoxycytidine, reference compound]",Relative initial rate of deamination,[1],39
"Nc1ccn([C@@H]2O[C@H](CO)[C@@H](O)[C@@H]2O)c(=O)n1 [Ara-C, 1-β-D-arabinofuranosylcytosine]",decline in number of L1210 cells recovered from abdominal compartment,[2],77%
same,IC50,"[3]; CCRF-CEM, 48 h",0.02 µM
same,IC50,"[4]; MOLT-4, 48 h",0.01 µM
same,IC50,"[5]; RPMI 6410, 48 h",0.06 µM
same,IC50,[6]; 48 h,100 µM
same,dependence of cytotoxicity on phosphorylation (in words),[7],cytotoxicity depends on phosphorylation
same,activity in experimental tumors (in words),[8],active in several experimental tumors in animals
"Cl.Nc1ccn([C@@H]2O[C@H](CO)[C@@H](O)[C@@H]2O[N+](=O)[O-])c(=O)n1 [Nitrara-C hydrochloride, 1-(2-O-Nitro-β-D-arabinofuranosyl)cytosine hydrochloride]",minimal effective dose,"[9]; Mus musculus, L1210, ip, 168 h, regimen 1 (daily for 7 days), read-out: dosages giving statistically significant increase in life-span",> 34 mg/kg
same,toxic deaths,[9]; any of the above regimens at the highest dosages,Toxic deaths were not seen
same,extension of life-span,"[9]; regimen 1 (daily for 7 days), 208 mg/kg",162%
same,indefinite cures (60 day survivors),"[9]; regimen 1 (daily for 7 days), 259 mg/kg",3 survivors
same,indefinite cures (60 day survivors),"[9]; regimen 1 (daily for 7 days), 346 mg/kg",1 survivor
same,indefinite cures (60 day survivors),"[9]; regimen 1 (daily for 7 days), 432 mg/kg",2 survivors
same,indefinite cures (60 day survivors),"[9]; regimen 1 (daily for 7 days), 720 mg/kg",1 survivor
same,extension of lifespan,[9]; regimen 2 (day 1 only),57%
same,extension of lifespan,[9]; regimen 3 (days 1 and 4 only),120%
same,extension of lifespan,"[9]; regimen 4 (days 1, 4 and 7)",197%
"Nc1ccn([C@@H]2O[C@H](CO)[C@@H](O)[C@@H]2O[N+](=O)[O-])c(=O)n1 [Nitrara-C, 1-(2-O-nitro-β-D-arabinofuranosyl)cytosine]",decline in number of L1210 cells recovered from abdominal compartment,[2],90%
same,IC50,"[3]; CCRF-CEM (T-cells), 48 hours",0.6 µM
same,IC50,"[4]; MOLT-4 (T-cells), 48 hours",0.4 µM
same,IC50,"[5]; RPMI-6410 (B-cells), 48 hours",6 µM
same,IC50,"[6]; CCFR-CEM/ara-C (mutant), deficient in deoxycytidine kinase, 48 hours",1000 µM
same,deamination by cytidine deaminase (in words),[1],not deaminated by cytidine deaminase
same,Relative initial rate of deamination,[1],< 1
same,dependence of cytotoxicity on phosphorylation (in words),[7],cytotoxicity depends on phosphorylation
same,activity compared to ara-C (in words),[7]; [12],compares favorably to that of ara-C
same,cytotoxicity (in words),[7]; [12],highly cytotoxic to various human leukemia cells in culture
same,metabolised,[10],< 1%
same,IC50,"[11]; read-out: IC50 (molar conc. for 50% inhib. of cell growth), with cytidine deaminase",0.6 µM
same,IC50,"[11]; read-out: IC50 (molar conc. for 50% inhib. of cell growth), without cytidine deaminase",0.6 µM
